SMILES strings stand for the structures.

Broadly, the IC50 is the concentration that gives 50% inhibition.

The species entered for one test is Mus musculus. As to the kind of experiment: Inhibitory potency was evaluated using electrically induced smooth muscle contractions of mouse vas deferens (MVD). The class given is functional, organism-based.
For another test, the species on record is Cavia porcellus. As to the kind of experiment: Inhibitory potency was evaluated using strips of guinea pig ileum (GPI) longitudinal muscle-myenteric plexus. The class given is functional, organism-based.

For the compound `CC1(C)SSC(C)(C)[C@@H](NC(=O)[C@@H](N)Cc2ccc(O)cc2)C(=O)NCC(=O)N[C@@H](Cc2ccc(F)cc2)C(=O)N[C@H]1C(=O)O`, the figures for the IC50 in the test listed under Mus musculus and in the test filed under Cavia porcellus were 0.84 nM and 5030 nM, respectively.
Take `CC1(C)SSC(C)(C)[C@@H](NC(=O)[C@@H](N)Cc2ccc(O)cc2)C(=O)NCC(=O)N[C@@H](Cc2ccc(I)cc2)C(=O)N[C@H]1C(=O)O`: the half-inhibitory concentration (IC50) in the test listed under Mus musculus is 2.65 nM; in the test listed under Cavia porcellus, 46100 nM.
Taken in the same sequence, the figures for `CC1(C)SSC(C)(C)[C@@H](NC(=O)[C@@H](N)Cc2ccc(O)cc2)C(=O)NCC(=O)N[C@@H](Cc2ccc(Br)cc2)C(=O)N[C@H]1C(=O)O` were 1.5 nM and 13400 nM.
Take `CC1(C)SSC(C)(C)[C@@H](NC(=O)[C@@H](N)Cc2ccc(O)cc2)C(=O)NCC(=O)N[C@@H](Cc2ccc(Cl)cc2)C(=O)N[C@H]1C(=O)O`: the half-inhibitory concentration (IC50) came to 0.89 nM in the test listed under Mus musculus and 4830 nM in the test listed under Cavia porcellus.

The values above are taken from ChEMBL document CHEMBL1124942, “[D-Pen2,D-Pen5]enkephalin analogues with increased affinity and selectivity for delta opioid receptors” (J Med Chem, 1990).
